Data set [1] in a line: Solubility of SOL at different pH. It counts as physicochemical. The source says:
It has been discovered herein that the solubility of the compounds described herein generally decreases with increasing pH. […] It has also been discovered herein that at certain pH levels, a stable aqueous suspension of the compounds may be prepared. That suspension may also be prepared from a reconstitutable powder for oral suspension (POS). However, it has also been discovered that at certain limiting pH levels, a threshold amount of the compounds described herein are in solution and therefore such an oral suspension may have a bitter taste that compromises the efficacy thereof, such as due to poor patient compliance.

Data set [2] can be described thus: Stability of SOL in the presence of excipients. It counts as physicochemical. The source says: It has unexpectedly been discovered that compounds described herein, such as SOL, are unstable in the presence of high relative amounts of sucralose. In another embodiment, the weight/weight ratio of API, such as SOL to sucralose is greater than about 3, greater than about 4, greater than about 5, greater than about 6, greater than about 7, greater than about 8, greater than about 9, or greater than about 10. Illustratively, the POS and suspension formulations described herein include one of more souring agents. It has unexpectedly been discovered that compounds described herein, such as SOL, are unstable in the presence of high relative amounts of citric acid. In another embodiment, the weight/weight ratio of API, such as SOL to citric acid is greater than about 50, greater than about 60, greater than about 70, greater than about 80, or greater than about 90. In another embodiment, the POS and suspension formulations described herein are substantially free of, or free of citric acid.

≈ marks a conversion by molar mass, not a printed value.

One may read the solubility as the dissolved amount per volume that the medium holds. Read a low solubility as a poorly soluble substance.

Take `CC[C@H]1OC(=O)[C@@](C)(F)C(=O)[C@H](C)[C@@H](O[C@@H]2O[C@H](C)C[C@H](N(C)C)[C@H]2O)[C@](C)(OC)C[C@@H](C)C(=O)[C@H](C)[C@H]2N(CCCCn3cc(-c4cccc(N)c4)nn3)C(=O)O[C@]12C` [SOL, solithromycin]: the solubility in data set [1] (pH 5.7, aqueous buffer) came out at 68000 µg/mL (≈ 80500 µM); in data set [1] (pH 6.2, aqueous buffer), 860 µg/mL (≈ 1020 µM); in data set [1] (pH 7.5, aqueous buffer), 70 µg/mL (≈ 82.8 µM). The “stability in the presence of citric acid” value in data set [2] (high relative amounts of citric acid) is “unstable”. Moreover, in data set [2] (high relative amounts of sucralose), the “stability in the presence of sucralose” value was “unstable”.

The values above are taken from patent US20170224664A1, “POWDER ORAL SUSPENSION FORMULATIONS OF ANTIBACTERIAL AGENTS” (Cempra Pharmaceuticals, Inc., priority 2014, published 2017).
